Measured values: US9095598B2, “Stilbenoid derivatives and their uses” (The Board of Trustees of the University of Arkansas, priority 2010, dated 2015)
Where two headings read alike, the source gives them in different places.

Assays:
CB1 receptors [1] = target: T1, CB1 receptors (Mus musculus, UniProt P47746); format: biochemical
T1 construct: from tissue; host or cells: mouse brain membranes

CB1 receptors [2] = format: biochemical, mouse; conditions: 10 μM, 30 min at 30° C.
human CB2 = target: T2, human CB2 (Homo sapiens, UniProt P34972); test: CB2 receptor binding, CHO-hCB2 membranes, 3H-CP 55,940 displacement; conditions: 0.2 nM 3H-CP 55,940, 90 min room temperature
T2 construct: expressed in transfected cells; host or cells: CHO cells, stably transformed; membrane preparations
T2 sequence (P34972 whole entry): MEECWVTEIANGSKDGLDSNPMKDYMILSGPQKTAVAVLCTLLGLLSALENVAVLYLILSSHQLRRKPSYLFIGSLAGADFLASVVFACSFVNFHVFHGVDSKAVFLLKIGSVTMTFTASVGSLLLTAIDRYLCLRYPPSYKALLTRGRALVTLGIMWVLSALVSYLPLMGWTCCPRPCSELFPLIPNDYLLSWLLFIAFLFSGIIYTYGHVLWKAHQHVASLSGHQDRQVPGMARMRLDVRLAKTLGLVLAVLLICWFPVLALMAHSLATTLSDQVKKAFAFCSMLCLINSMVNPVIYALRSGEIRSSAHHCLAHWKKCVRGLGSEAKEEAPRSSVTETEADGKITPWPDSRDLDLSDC
Description: (§1) Membrane preparations were prepared from mouse brain to examine CB1 binding. For CB2 binding, membrane preparations were prepared from CHO cells stably transformed with human CB2.

[3] = target: T3, human recombinant UGT1A10 (Homo sapiens, UniProt Q9HAW8); test: Glucuronidation by recombinant human UGT1A10 (activity screen and kinetic constants); conditions: for glucuronide formation, in words (FIG. 1): substrate 250 μM, UDP-GlcUA 4 mM
T3 sequence (Q9HAW8 26-530): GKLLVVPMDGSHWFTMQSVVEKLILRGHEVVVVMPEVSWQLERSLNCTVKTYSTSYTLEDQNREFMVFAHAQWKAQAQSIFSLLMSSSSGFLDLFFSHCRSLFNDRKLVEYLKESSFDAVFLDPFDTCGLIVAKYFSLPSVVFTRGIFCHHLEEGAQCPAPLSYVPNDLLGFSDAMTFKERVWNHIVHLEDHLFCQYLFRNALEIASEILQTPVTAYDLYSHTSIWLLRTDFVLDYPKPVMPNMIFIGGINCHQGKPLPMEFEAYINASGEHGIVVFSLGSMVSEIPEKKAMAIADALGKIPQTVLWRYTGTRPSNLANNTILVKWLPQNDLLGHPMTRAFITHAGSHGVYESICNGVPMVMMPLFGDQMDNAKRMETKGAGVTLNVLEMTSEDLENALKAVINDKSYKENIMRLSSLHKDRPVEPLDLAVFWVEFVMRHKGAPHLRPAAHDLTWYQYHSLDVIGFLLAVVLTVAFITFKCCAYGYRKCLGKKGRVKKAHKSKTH
Description: (§2) Eight human recombinant UGT1A isoforms (UGT1A1, 1A3, 1A4, 1A6, 1A7, 1A8, 1A9, and 1A10; 5 μg) expressed as His-tag proteins in baculovirus-infected Sf9 insect cells and human liver microsomes (from one donor; HL2; 50 μg) and human intestinal microsomes (from two donors; HI36 and HI41; 50 μg) were evaluated for their ability to glucuronidate these four compounds. The concentrations of the substrate and co-substrate (i.e., UDP-GlcUA) were 250 μM and 4 mM, respectively. Glucuronidation products were analyzed by HPLC and LCMS/MS.
(§3) The kinetic constants of the glucuronidation reactions using recombinant human UGT1A1 and UGT1A10 were determined by measuring the enzyme activity in the presence of increasing concentrations of substrate (see FIG. 2).

human recombinant UGT1A1 [4] = target: T4, human recombinant UGT1A1 (Homo sapiens, UniProt P22309); test: Glucuronidation by recombinant human UGT1A1 (activity screen and kinetic constants); conditions: for Kinetics (model): — = No activity; for glucuronide formation, in words (FIG. 1): substrate 250 μM, UDP-GlcUA 4 mM
T4 sequence (P22309 26-533): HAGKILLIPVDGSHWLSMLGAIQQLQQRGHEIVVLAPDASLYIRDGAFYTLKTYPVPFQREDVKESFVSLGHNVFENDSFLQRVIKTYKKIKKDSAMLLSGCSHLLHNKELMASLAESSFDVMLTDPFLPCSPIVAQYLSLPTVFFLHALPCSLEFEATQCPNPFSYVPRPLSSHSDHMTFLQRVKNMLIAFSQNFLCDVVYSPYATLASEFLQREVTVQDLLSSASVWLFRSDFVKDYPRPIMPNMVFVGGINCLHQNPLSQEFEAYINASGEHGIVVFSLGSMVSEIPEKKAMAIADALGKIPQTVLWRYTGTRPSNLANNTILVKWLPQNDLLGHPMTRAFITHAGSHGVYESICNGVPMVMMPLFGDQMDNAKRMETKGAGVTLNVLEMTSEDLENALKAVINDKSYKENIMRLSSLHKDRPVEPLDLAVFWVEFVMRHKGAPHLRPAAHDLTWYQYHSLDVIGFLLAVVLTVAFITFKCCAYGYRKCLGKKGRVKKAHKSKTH
Description: as §2, §3

[5] = target: T3, human recombinant UGT1A10; conditions: 250 μM
Description: as §2, §3

human recombinant UGT1A1 [6] = target: T4, human recombinant UGT1A1; conditions: 250 μM
Description: as §2, §3

[7] = system: sepsis-induced renal injury (CLP); test: Murine cecal ligation and puncture (CLP) model of sepsis-induced renal injury; format: in vivo, mice; conditions: 30 mg/kg i.p. 30 min prior to and 6 hr post CLP; 18 hr post CLP
Description: Control (sham) mice underwent surgery but not CLP. Each treatment group contained 4-5 mice. Renal ONOO^− generation (rhodamine fluorescence) and renal peritubular capillary perfusion were quantified using intravital video microscopy (IVVM) on anesthetized mice in each of the treatment groups.

[8] = target: T5, CB1 receptors (mouse brain-mCB1 membranes) (Mus musculus, UniProt P47746); test: CB1 receptor binding, mouse brain membranes, 3H-CP 55,940 displacement
T5 construct: from tissue; host or cells: mouse brain membranes
T5 sequence (P47746 whole entry): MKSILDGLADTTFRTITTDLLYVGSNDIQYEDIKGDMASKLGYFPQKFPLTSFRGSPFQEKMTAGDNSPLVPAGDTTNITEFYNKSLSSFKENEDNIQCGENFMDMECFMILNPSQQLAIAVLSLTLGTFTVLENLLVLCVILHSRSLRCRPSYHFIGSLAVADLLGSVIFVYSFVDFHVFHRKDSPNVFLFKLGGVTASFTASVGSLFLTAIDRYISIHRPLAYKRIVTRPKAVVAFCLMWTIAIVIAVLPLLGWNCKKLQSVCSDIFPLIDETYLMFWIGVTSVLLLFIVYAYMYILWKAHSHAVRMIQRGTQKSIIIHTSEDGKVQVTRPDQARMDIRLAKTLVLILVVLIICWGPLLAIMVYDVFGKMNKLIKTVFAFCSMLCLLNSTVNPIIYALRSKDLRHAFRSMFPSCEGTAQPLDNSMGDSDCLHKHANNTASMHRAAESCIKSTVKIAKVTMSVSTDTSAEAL
Description: as §1

[9] = product 4′-glucuronide (4′G), USI = substrate inhibition

T1 sequence (P47746 whole entry): as above

| Molecule | effect on basal G-protein activity, in words (CB1 receptors [2]) | Ki (human CB2) [µM] | Kinetics (model) [3, 9] | glucuronide formation, in words (FIG. 1) [3] | Kinetics (model) (human recombinant UGT1A1 [4]; product 3-glucuronide (3G)) | Kinetics (model) (human recombinant UGT1A1 [4]; product 4′-glucuronide (4′G)) | glucuronide formation, in words (FIG. 1) (human recombinant UGT1A1 [4]) | further results |
| --- | --- | --- | --- | --- | --- | --- | --- | --- |
| CCCCCCC(C)(C)c1ccc([C@@H]2C[C@H](O)CC[C@H]2CCCO)c(O)c1 [CP-55,940, reference compound] | – | – | – | – | – | – | – | effect on G-protein activity, in words (CB1 receptors [1]; 1 μM, 30 min at 30° C.): stimulated; maximal response produced by CP-55,940 (CB1 receptors [1]; CP-55,940 alone): 0.34+/−0.03 pmole/mg protein |
| CC1=CC[C@@H]2[C@@H](C1)c1c(O)cc(CC#CCCCNS(C)(=O)=O)cc1OC2(C)C [O-2050, reference compound] | – | – | – | – | – | – | – | effect of co-incubation on CP-55,940 stimulation and AM251 inhibition of G-protein activity (CB1 receptors [1]; data not shown): blocked |
| CC(C)/C=C/c1c(O)cc(/C=C/c2ccc(O)cc2)cc1O [tA3, trans-arachidin-3] | little effect | 11.3 ± 0.6 | USI | significant inhibition of 3-O-glucuronidation | M-M | M-M | significant inhibition of 3-O-glucuronidation | Kinetics (model) ([3]; product 4′-glucuronide (4′G), USI = substrate inhibition, listed as 1A3): substrate inhibition kinetics |
| Oc1cc(O)cc(/C=C/c2ccc(O)c(O)c2)c1 [tPice, trans-piceatannol] | markedly reduced | – | Hill | – | M-M | M-M | – | Kinetics (model) ([3]; product 3-glucuronide (3G), — = No activity): M-M |
| Oc1ccc(/C=C/c2cc(O)cc(O)c2)cc1 [tRes, trans-resveratrol] | little effect | 65.5 ± 12 | – | – | – | – | – | glucuronide formation, in words (FIG. 1) [5]: glucuronidated to 3-O— and 4′-O-Glucs; glucuronide formation, in words (FIG. 1) (human recombinant UGT1A1 [6]): glucuronidated to 3-O— and 4′-O-Glucs; RNS generation in the kidney (rhodamine fluorescence, IVVM) [7]: blocked RNS generation in the kidney; renal peritubular capillary perfusion (IVVM) [7]: preserved renal capillary perfusion |
| trans-arachidin-1 [tA1] | markedly reduced | 12.6 ± 1.7 | substrate inhibition kinetics and USI | formation of the 3-O-Gluc | – | – | completely blocked formation of any Gluc | increase (shift-to-the-right) in the ED50 of CP-55,940 (CB1 receptors [1]; 10 μM tA-1): 7 fold; maximal response produced by CP-55,940 in presence of test compound (CB1 receptors [1]; with tA-1 (10 μM)): 0.22+/−0.04 pmole/mg protein; enhancement of binding affinity for CB1 (isoprenyl plus additional hydroxyl group) [8]: 2 fold |
